Laboratory results published in patent publication US9169252B2 (BRISTOL-MYERS SQUIBB COMPANY, priority 2014, dated 2015).
Like-named read-outs stand apart in the source and are kept apart here.

Experiments:
[1] = target: IRAK4 (Homo sapiens (Human), UniProt Q9NWZ3); experiment: IRAK4 Inhibition Assay; assay type: biochemical; conditions: IRAK4 Inhibition Assay; ATP 500 μM; read-out: IRAK4 IC50
Summary of the method: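 Mobility-shift readout: fluorescent substrate and phosphoproduct resolved electrophoretically on Caliper LabChip 3000 after EDTA quench (35 mM). Enzyme reaction of IRAK4, substrates and test compound ran 60 min at room temperature.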

[2] = tested on: TLR2 induced IL-6 in peripheral blood mononuclear cells (PBMCs); experiment: PBMC TLR2 Induced IL-6 Assay; assay type: cell-based, human; conditions: PBMC TLR2 Induced IL-6 Assay, lipoteichoic acid stimulation, IL-6 by ELISA; for IC50: read-out: Cell IC50; for EC50: read-out: Cell EC50
Summary of the method: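 Lipoteichoic acid at 10 µg/ml served as TLR2 stimulus for 5 hours, following a 30-minute compound pretreatment at 37° C. Cells were Ficoll-isolated human PBMCs, 250000 cells/well, cultured in RPMI plus 10% heat-inactivated FCS.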

Chain of IRAK4 (Q9NWZ3 whole entry, species assumed): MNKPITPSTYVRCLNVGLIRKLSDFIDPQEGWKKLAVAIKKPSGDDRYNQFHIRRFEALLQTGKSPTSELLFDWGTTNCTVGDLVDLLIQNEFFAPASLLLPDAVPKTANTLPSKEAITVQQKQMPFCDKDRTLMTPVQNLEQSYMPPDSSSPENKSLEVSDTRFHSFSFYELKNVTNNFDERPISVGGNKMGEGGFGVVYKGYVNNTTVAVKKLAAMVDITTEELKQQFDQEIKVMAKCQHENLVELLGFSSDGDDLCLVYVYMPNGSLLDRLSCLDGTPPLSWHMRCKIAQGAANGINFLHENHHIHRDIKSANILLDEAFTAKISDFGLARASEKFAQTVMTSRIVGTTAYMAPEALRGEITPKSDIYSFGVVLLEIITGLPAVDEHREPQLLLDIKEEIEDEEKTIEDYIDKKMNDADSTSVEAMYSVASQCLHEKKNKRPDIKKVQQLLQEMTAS

IC50 [1] | SMILES | IC50 ([2]; Homo sapiens, PBMC) | EC50 ([2]; Homo sapiens, PBMC) | EC50 [2]
4.5 nM | CC(C)Nc1cc(-n2ncc3cc(C#N)cnc32)ncc1C(=O)NCCC1CCOCC1 [Example 310] | 23 nM |  | 
4.7 nM | CC(C)Nc1cc(-n2ncc3cc(C#N)cnc32)ncc1C(=O)NCCc1c[nH]cn1 [Example 311] | 347 nM |  | 
9.2 nM | CC(C)Nc1cc(-n2ncc3cc(C#N)cnc32)ncc1C(=O)NC[C@@H](F)C(C)C [Example 312] | 375 nM |  | 
14.7 nM | CNS(=O)(=O)N1CCC(NC(=O)c2cnc(-n3ncc4cc(C#N)cnc43)cc2NC(C)C)CC1 [Example 313] | 289 nM |  | 
13.7 nM | CC(C)Nc1cc(-n2ncc3cc(C#N)cnc32)ncc1C(=O)NC[C@@H](F)C(C)(C)OC(F)F [Example 314] | 420 nM |  | 
10.7 nM | CC(C)Nc1cc(-n2ncc3cc(C#N)cnc32)ncc1C(=O)NC[C@@H](F)C(O)(C1CC1)C1CC1 [Example 315] | 267 nM |  | 
3.8 nM | CC(=O)N[C@H]1CC[C@H](NC(=O)c2cnc(-n3ncc4cc(C#N)c(N)nc43)cc2NC(C)C)CC1 [Example 317] | 172 nM |  | 
7.9 nM | C[C@@H](CO)Nc1cc(-n2ncc3cc(C#N)cnc32)ncc1C(=O)NCCC1CC1 [Example 318] | 188 nM |  | 
6.5 nM | CCCCNC(=O)c1cnc(-n2ncc3cc(C#N)cnc32)cc1N[C@@H](C)CO [Example 319] | 191 nM |  | 
5.6 nM | CC(C)CCNC(=O)c1cnc(-n2ncc3cc(C#N)cnc32)cc1N[C@@H](C)CO [Example 320] | 261 nM |  | 
3.1 nM | COC(C)(C)[C@H](F)CNC(=O)c1cnc(-n2ncc3cc(C#N)c(N)nc32)cc1NC(C)C [Example 321] | 53 nM |  | 
6.7 nM | CC(C)Nc1cc(-n2ncc3cc(C#N)c(N)nc32)ncc1C(=O)NC1(C)CC1 [Example 322] | 159 nM |  | 
17.3 nM | CC(C)Nc1cc(-n2ncc3cc(C#N)c(N)nc32)ncc1C(=O)N[C@H](C)C1CC1 [Example 323] | 612 nM |  | 
6.6 nM | CC(C)Nc1cc(-n2ncc3cc(C#N)c(N)nc32)ncc1C(=O)NC1CCCCC1 [Example 324] | 278 nM |  | 
6 nM | CC(C)Nc1cc(-n2ncc3cc(C#N)c(N)nc32)ncc1C(=O)NC1(C#N)CC1 [Example 325] | 227 nM |  | 
11.4 nM | CCCNC(=O)c1cnc(-n2ncc3cc(C#N)c(N)nc32)cc1NC(C)C [Example 326] | 30 nM |  | 
11.1 nM | CC(C)Nc1cc(-n2ncc3cc(C#N)c(N)nc32)ncc1C(=O)NC1C=CCC1 (stereo not shown) [Example 327] | 181 nM |  | 
10 nM | CC(C)Nc1cc(-n2ncc3cc(C#N)c(N)nc32)ncc1C(=O)NC[C@@H](C)F [Example 328] | 11 nM |  | 
4.9 nM | CC(C)Nc1cc(-n2ncc3cc(C#N)cnc32)ncc1C(=O)NCC(F)C1CCOCC1 (stereo not shown) [Example 329] | 76 nM |  | 

IC50 [1] | SMILES | IC50 ([2]; Homo sapiens, PBMC) | EC50 ([2]; Homo sapiens, PBMC) | EC50 [2]
4.3 nM | CC(C)Nc1cc(-n2ncc3cc(Cl)cnc32)ncc1C(=O)NC[C@@H](F)C(C)(C)F [Example 330] | 512 nM |  | 
6.2 nM | CC(C)Nc1cc(-n2ncc3cc(C#N)cnc32)ncc1C(=O)NCCC1(O)CC1 [Example 331] | 57 nM |  | 
13 nM | CC(C)Nc1cc(-n2ncc3cc(C#N)cnc32)ncc1C(=O)NCCC(C)(F)F [Example 332] | 159 nM |  | 
18.5 nM | CC(C)Nc1cc(-n2ncc3cnc(NC[C@@H](F)C(C)(C)O)nc32)ncc1C(=O)NC[C@@H](F)C(C)(C)O [Example 334] |  | 460 nM | 
3.3 nM | CC(C)Nc1cc(-n2ncc3cc(C#N)cnc32)ncc1C(=O)NC[C@@H](F)C(C)(C)O [Example 335] |  |  | 77 nM
3.8 nM | CC(C)(O)[C@H](F)CNC(=O)c1cnc(-n2ncc3cc(C#N)cnc32)cc1NC1CC1 [Example 336] | 556 nM |  | 168 nM
4.5 nM | CC(C)(O)[C@H](F)CNC(=O)c1cnc(-n2cnc3cc(C#N)cnc32)cc1NC1CCC1 [Example 338] | 147 nM |  | 
4 nM | CC(C)Nc1cc(-n2cnc3cc(Cl)cnc32)ncc1C(=O)NC[C@@H](F)C(C)(C)O [Example 339] | 332 nM |  | 
10 nM | CC(C)(O)[C@H](F)CNC(=O)c1cnc(-n2cnc3cc(Cl)cnc32)cc1NC1COC1 [Example 340] |  | 536 nM | 
1.9 nM | CC(C)Nc1cc(-n2cnc3cc(C#N)c(N)nc32)ncc1C(=O)NC[C@@H](F)C(C)(C)O [Example 341] |  | 161 nM | 
8.7 nM | CC(C)Nc1cc(-n2cnc3cc(C#N)cnc32)ncc1C(=O)NC[C@@H](F)C(C)(C)F [Example 342] | 423 nM |  | 
3.5 nM | CC1(Nc2cc(-n3cnc4cc(C#N)cnc43)ncc2C(=O)NC[C@@H](F)C(C)(C)O)CC1 [Example 343] | 428 nM |  | 
13.5 nM | CC(C)(F)[C@H](F)CNC(=O)c1cnc(-n2cnc3cc(C#N)cnc32)cc1NC1COC1 [Example 344] | 144 nM |  | 
7.4 nM | CC(C)(O)[C@H](F)CNC(=O)c1cnc(-n2cnc3cc(C#N)cnc32)cc1NC1CCOCC1 [Example 345] | 180 nM |  | 
3.6 nM | CC(C)Nc1cc(-n2cnc3cnc(N)nc32)ncc1C(=O)NC[C@@H](F)C(C)(C)F [Example 346] | 306 nM |  | 
1.3 nM | CC(C)(O)[C@H](F)CNC(=O)c1cnc(-n2ncc3cc(C#N)cnc32)cc1Nc1cnn(CC(F)F)c1 [Example 347, (R)-6-(5-Cyano-1H-pyrazolo[3,4-b]pyridin-1-yl)-4-((1-(2,2-difluoroethyl)-1H-pyrazol-4-yl)amino)-N-(2-fluoro-3-hydroxy-3-methylbutyl)nicotinamide] | 146 nM |  | 
1.8 nM | CC(C)(O)[C@H](F)CNC(=O)c1cnc(-n2ncc3cc(C#N)cnc32)cc1Nc1cnn(C2COC2)c1 [Example 348] | 489 nM |  | 
3.3 nM | CC(C)(O)[C@H](F)CNC(=O)c1cnc(-n2ncc3cc(C#N)cnc32)cc1Nc1cnn(C2CCOCC2)c1 [Example 349] | 180 nM |  | 
2.3 nM | CC(C)(O)[C@H](F)CNC(=O)c1cnc(-n2ncc3cc(Cl)cnc32)cc1Nc1cnn(CC(F)F)c1 [Example 351] | 27 nM |  | 

IC50 [1] | SMILES | IC50 ([2]; Homo sapiens, PBMC) | EC50 ([2]; Homo sapiens, PBMC) | EC50 [2]
6.5 nM | CC(C)(O)[C@H](F)CNC(=O)c1cnc(-n2ncc3cc(Cl)cnc32)cc1Nc1cnn(C2CCOCC2)c1 [Example 352] | 170 nM |  | 
1.7 nM | CC(C)(O)[C@H](F)CNC(=O)c1cnc(-n2ncc3cc(C#N)cnc32)cc1Nc1cnn(CC(F)(F)F)c1 [Example 353] | 18 nM |  | 
1.9 nM | CC(C)(O)[C@H](F)CNC(=O)c1cnc(-n2ncc3cc(Cl)cnc32)cc1Nc1cnn(CC(F)(F)F)c1 [Example 354] | 115 nM |  | 
2.4 nM | CCn1cc(Nc2cc(-n3ncc4cc(C#N)cnc43)ncc2C(=O)NC[C@@H](F)C(C)(C)O)cn1 [Example 355] | 122 nM |  | 
2.4 nM | CC(C)(F)Cn1cc(Nc2cc(-n3ncc4cc(C#N)cnc43)ncc2C(=O)NC[C@@H](F)C(C)(C)O)cn1 [Example 356] | 154 nM |  | 
1.7 nM | CCn1cc(Nc2cc(-n3ncc4cc(Cl)cnc43)ncc2C(=O)NC[C@@H](F)C(C)(C)O)cn1 [Example 357] | 67 nM |  | 
3.5 nM | CC(C)n1cc(Nc2cc(-n3ncc4cc(Cl)cnc43)ncc2C(=O)NC[C@@H](F)C(C)(C)O)cn1 [Example 358] | 257 nM |  | 
1.3 nM | CC(C)(O)[C@H](F)CNC(=O)c1cnc(-n2cnc3cc(Cl)cnc32)cc1Nc1cnn(CC(F)F)c1 [Example 359] | 84 nM |  | 
1.5 nM | CC(C)(O)[C@H](F)CNC(=O)c1cnc(-n2cnc3cc(Cl)cnc32)cc1Nc1cnn(CC(F)(F)F)c1 [Example 360] | 376 nM |  | 
2.9 nM | CCn1cc(Nc2cc(-n3cnc4cc(Cl)cnc43)ncc2C(=O)NC[C@@H](F)C(C)(C)O)cn1 [Example 361] | 206 nM |  | 
4.3 nM | CC(C)n1cc(Nc2cc(-n3cnc4cc(Cl)cnc43)ncc2C(=O)NC[C@@H](F)C(C)(C)O)cn1 [Example 362] | 486 nM |  | 
3.2 nM | COCCn1cc(Nc2cc(-n3ncc4cc(C#N)cnc43)ncc2C(=O)NC[C@@H](F)C(C)(C)O)cn1 [Example 363] | 459 nM |  | 
2.6 nM | COCCn1cc(Nc2cc(-n3ncc4cc(Cl)cnc43)ncc2C(=O)NC[C@@H](F)C(C)(C)O)cn1 [Example 364] | 83 nM |  | 
1.7 nM | CC(F)(F)Cn1cc(Nc2cc(-n3ncc4cc(C#N)cnc43)ncc2C(=O)NC[C@@H](F)C(C)(C)O)cn1 [Example 365] | 66 nM |  | 
7.9 nM | COCCn1cc(Nc2cc(-n3cnc4cc(Cl)cnc43)ncc2C(=O)NC[C@@H](F)C(C)(C)O)cn1 [Example 366] | 205 nM |  | 
1.3 nM | CC(C)(O)[C@H](F)CNC(=O)c1cnc(-n2ncc3cc(Cl)cnc32)cc1Nc1cnn(CCCF)c1 [Example 367] | 41 nM |  | 
2.4 nM | CC(C)(O)[C@H](F)CNC(=O)c1cnc(-n2ncc3cc(C#N)cnc32)cc1Nc1cnn(CCCF)c1 [Example 368] | 61 nM |  | 
1.9 nM | CC(F)(F)Cn1cc(Nc2cc(-n3ncc4cc(Cl)cnc43)ncc2C(=O)NC[C@@H](F)C(C)(C)O)cn1 [Example 369] | 32 nM |  | 
2.6 nM | CC(C)(O)[C@H](F)CNC(=O)c1cnc(-n2cnc3cc(Cl)cnc32)cc1Nc1cnn(CCCF)c1 [Example 370] | 84 nM |  | 
